Results reported in paper PMC11192437, “Molecular and structural basis of oligopeptide recognition by the Ami transporter system in pneumococci” (PLOS Pathogens, 2024).

How the values were obtained:
[1] = molecular target: AliC (residues 24–655), oligopeptide-binding lipoprotein of the Ami system, without the lipobox segment (Streptococcus pneumoniae); test: AUC; sedimentation velocity, 20 mM Tris–HCl pH 7.5, 20°C, 4.1 μM protein, c(s) distribution (SEDFIT)
[2] = molecular target: AliC (residues 24–655), oligopeptide-binding lipoprotein of the Ami system, without the lipobox segment (Streptococcus pneumoniae); test: crystal structure; AliC in the open conformation, no peptide; 0.1 M Bis-Tris pH 6.5, 25% PEG3350; 2.38 Å; domain-swapped dimer
AliD [3] = test: Microscale thermophoresis (MST) peptide binding to AliD; design: species or system Streptococcus pneumoniae; conditions: 20 nM RED-NHS-labeled AliD, peptide 7.63x10^-6–0.125 mM in PBS, 25°C
Experimental: To investigate the conformational changes occurring in the Ami permease OBPs upon ligand binding, we synthesized specific peptides (Tables 1 and S2) previously reported to be substrates of these proteins. […] To verify specific binding of peptides to OBPs, binding of peptide 1 (FPPQSV), which is the natural substrate of AliD, and peptide 2 (AIQSEKARKHN) was measured to AliD by microscale thermophoresis (MST) (see methods). […] The crystal structure of the AliD:peptide 1 complex was obtained by co-crystallization (see Materials and Methods) at 2.18 Å resolution (Fig 3A).
Binding of peptides to heterologously expressed AliD was measured by microscale thermophoresis (MST). […] Analyzed peptides (1: FPPQSV and 2: AIQSEKARKHN) were diluted in PBS. […] Samples were loaded into standard capillaries (NanoTemper Technologies) and measured using the Monolith NT.115 machine (NanoTemper Technologies). […] Data of three independently conducted experiments were analyzed using the Mo.Affinity Analysis software version 2.3 from NanoTemper Technologies.
Supplementary file ppat.1011883.s017.tif: S6 Fig Peptide 1 structure in the AliD:peptide 1 complex. (A) Binding of peptide 1 and 2 to heterologously expressed AliD as analyzed by microscale thermophoresis (MST). […] Samples were measured using the Monolith NT.115 (NanoTemper Technologies) at 40% LED power and medium MST power at 25° C. […]

AliD [4] = conditions: peptide derived from Prevotella species; cited from earlier work
AliD [5] = conditions: peptide derived from Prevotella species; cited from earlier work; remark: listed apart in the source
AliB = conditions: S2 Table; previously reported to bind AliB; ref 10 (table adapted from Nasher et al; 2018); cited from earlier work
Text: Supplement ppat.1011883.s002.docx, table 1 | column: OBP

[6] = molecular target: AliD (residues 28–652), oligopeptide-binding lipoprotein of the Ami system, without the lipobox segment (Streptococcus pneumoniae); test: MST; 20 nM RED-NHS-labelled AliD and unlabelled peptides (7.63x10^-6–0.125 mM) both in solution, PBS, 25°C, 40% LED power, medium MST power, Monolith NT.115; three independent experiments

AliC (residues 24–655), oligopeptide-binding lipoprotein of the Ami system, without the lipobox segment (natural protein)
stoichiometry N [1]: 2 | stoichiometry N [2]: 2

FPPQSV [Peptide 1, FPPQSV; Ribosome-associated GTPase EngA (Prevotella species)]
Binding to AliD (in words) (AliD [3]): concentration dependent binding | Gene expression change when bound by AliD (AliD [4]): significant changes in gene expression | Colonization when bound by AliD (AliD [5]): enhanced colonization

PIVGGHEGAGV [Peptide 3, …; NDMA-dependent alcohol dehydrogenase (multispecies)]
Corresponding OBP (AliB): AliB

Peptide 1 (FPPQSV)
Kd [6]: 3.44 µM

VMVKGPGPGREST [Peptide 4, …; 30S ribosomal protein S11 (multispecies)]
Corresponding OBP (AliB): AliB

AIQSEKARKHN [Peptide 2 (…)]
Kd [6]: 14.4 µM
